Data as given in patent US12071453B2, “Neuroactive steroids, compositions, and uses thereof” (Sage Therapeutics, Inc., priority 2013, dated 2024).

Assays:
[1] = molecular target: T1, GABAA receptors composed of the α4β3δ subunits (GABRA4/GABRB3/GABRD) (Homo sapiens, UniProt P28472+P48169); assay: Two Electrode Voltage Clamp (TEVC), GABA receptor potentiation in Xenopus laevis oocytes, α4β3δ; assay type: cell-based; conditions: 10 μM compound, 3 μM GABA, read-out: GABA (α4β3δ) % efficacy at 10 μM
T1 construct: expressed in transfected cells; host or cells: Xenopus laevis oocytes, injected (ratio 5:1:5)
Procedure: (§1) The Two Electrode Voltage Clamp (TEVC) technique was used to investigate the effects of compounds at a concentration of 10 μM on GABAA receptors composed of the α1β2γ2 or α4β3δ subunits expressed in oocytes from the Xenopus laevis. GABA-evoked currents were recorded from oocytes that expressed the GABA receptors and the modulatory effects of the test items on these currents were investigated.
(§2) Ovaries were harvested from Xenopus laevis females that had been deeply anesthetized by cooling at 4° C. and immersion in Tricaine methanesulfonate (MS-222 at a concentration of 150 mg/L) in sodium bicarbonate (300 mg/L). Once anesthetized the animal was decapitated and pithed following the rules of animal rights from the Geneva canton. A small piece of ovary was isolated for immediate preparation while the remaining part was placed at 4° C. in a sterile Barth solution containing in mM NaCl 88, KCl 1, NaHCO3 2.4, HEPES 10, MgSO4·7H2O 0.82, Ca(NO3)2·4H2O 0.33, CaCl2·6H2O 0.41, at pH 7.4, and supplemented with 20 μg/ml of kanamycin, 100 unit/ml penicillin and 100 μg/ml streptomycin. All recordings were performed at 18° C. and cells were super-fused with medium containing in mM: NaCl 82.5, KCl 2.5, HEPES 5, CaCl2·2H2O, ·6H2O 1, pH 7.4.
(§3) Plasmids containing the RNAs of the human GABRA1/GABRB2/GABRG2 and GABRA4/GABRB3/GABRD genes were injected into oocytes using a proprietary automated injection device (Hogg el al., J. Neurosci. Methods, (2008) 169: 65-75). These genes encode for the α1β2γ2 and α4β3δ GABAA subunits respectively. Receptor expression was assessed using electrophysiology at least two days later. The ratio of RNA injection for α1β2γ2 was 1:1:1 and for α4β3δ was 5:1:5. Electrophysiological recordings were made using an automated process equipped with standard TEVC and data were captured and analyzed using a proprietary data acquisition and analysis software running under Matlab (Mathworks Inc.). The membrane potential of the oocytes was maintained at −80 mV throughout the experiments. To explore the effects of proprietary compounds, currents were evoked by applying 10 μM (α1β2γ2) or 3 μM (α4β3δ) GABA for 30 s. These concentrations approximated the EC50 concentration of GABA at each receptor subtype. Oocytes were then re-exposed to GABA again for 30 s. 15 s after beginning the GABA application, test article was co-applied at a concentration of 10 μM for 15 s. Potentiation of the peak current was assessed. Data was filtered at 10 Hz, captured at 100 Hz and analyzed using proprietary data acquisition and analysis software running under Matlab (Mathworks Inc.). For statistical analysis values were computed either with Excel (Microsoft) or Matlab (mathworks Inc.). To obtain mean measurements with standard deviations, all experiments were carried out using at least three cells.

[2] = molecular target: T2, GABAA receptors composed of the α1β2γ2 subunits (GABRA1/GABRB2/GABRG2) (Homo sapiens, UniProt P14867+P47870); assay: Two Electrode Voltage Clamp (TEVC), GABA receptor potentiation in Xenopus laevis oocytes, α1β2γ2; assay type: cell-based; conditions: 10 μM compound, 10 μM GABA, read-out: GABA (α1β2γ2) % efficacy at 10 μM
T2 construct: expressed in transfected cells; host or cells: Xenopus laevis oocytes, injected (ratio 1:1:1)
Procedure: as §1, §2, §3

[3] = molecular target: [35S]-TBPS binding in rat brain cortical membranes; assay: Steroid inhibition of [35S]-TBPS binding, rat brain cortical membranes; conditions: 3 nM [35S]-TBPS, in the presence of 5 μM GABA, read-out: 35S-TBPS Radioligand Displacement (IC50)
Procedure: TBPS binding assays using rat brain cortical membranes in the presence of 5 μM GABA has been described (Gee et al, J. Pharmacol. Exp. Ther. 1987, 241, 346-353; Hawkinson et al, Mol. Pharmacol. 1994, 46, 977-985; Lewin, A. H et al., Mol. Pharmacol. 1989, 35, 189-194).
Briefly, cortices are rapidly removed following decapitation of carbon dioxide-anesthetized Sprague-Dawley rats (200-250 g). The cortices are homogenized in 10 volumes of ice-cold 0.32 M sucrose using a glass/teflon homogenizer and centrifuged at 1500×g for 10 min at 4° C. The resultant supernatants are centrifuged at 10,000×g for 20 min at 4° C. to obtain the P2 pellets. The P2 pellets are resuspended in 200 mM NaCl/50 mM Na—K phosphate pH 7.4 buffer and centrifuged at 10,000×g for 10 min at 4° C. This washing procedure is repeated twice and the pellets are resuspended in 10 volumes of buffer. Aliquots (100 μL) of the membrane suspensions are incubated with 3 nM [^35S]-TBPS and 5 μL aliquots of test drug dissolved in dimethyl sulfoxide (DMSO) (final 0.5%) in the presence of 5 μM GABA. The incubation is brought to a final volume of 1.0 mL with buffer. Nonspecific binding is determined in the presence of 2 μM unlabeled TBPS and ranged from 15 to 25%. Following a 90 min incubation at room temp, the assays are terminated by filtration through glass fiber filters (Schleicher and Schuell No. 32) using a cell harvester (Brandel) and rinsed three times with ice-cold buffer. Filter bound radioactivity is measured by liquid scintillation spectrometry. Non-linear curve fitting of the overall data for each drug averaged for each concentration is done using Prism (GraphPad). […] The concentration of test compound producing 50% inhibition (IC50) of specific binding and the maximal extent of inhibition (Imax) are determined for the individual experiments with the same model used for the overall data and then the mean±SEM.s of the individual experiments are calculated.
Various compounds are or can be screened to determine their potential as modulators of [^35S]-TBPS binding in vitro. These assays are or can be performed in accordance with the above discussed procedures.

T2 sequence (P14867 28-456): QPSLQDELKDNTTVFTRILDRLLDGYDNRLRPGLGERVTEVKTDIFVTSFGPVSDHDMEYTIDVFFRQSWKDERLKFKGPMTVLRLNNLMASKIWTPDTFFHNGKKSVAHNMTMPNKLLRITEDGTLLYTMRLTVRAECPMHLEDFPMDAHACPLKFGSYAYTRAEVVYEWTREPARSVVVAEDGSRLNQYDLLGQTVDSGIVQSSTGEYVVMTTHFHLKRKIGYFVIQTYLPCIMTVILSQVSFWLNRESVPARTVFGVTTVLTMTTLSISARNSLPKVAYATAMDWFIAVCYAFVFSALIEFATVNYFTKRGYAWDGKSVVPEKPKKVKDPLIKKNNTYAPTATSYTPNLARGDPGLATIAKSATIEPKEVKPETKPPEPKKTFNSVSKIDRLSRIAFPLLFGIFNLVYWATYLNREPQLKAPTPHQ
T2 sequence (P47870 26-512): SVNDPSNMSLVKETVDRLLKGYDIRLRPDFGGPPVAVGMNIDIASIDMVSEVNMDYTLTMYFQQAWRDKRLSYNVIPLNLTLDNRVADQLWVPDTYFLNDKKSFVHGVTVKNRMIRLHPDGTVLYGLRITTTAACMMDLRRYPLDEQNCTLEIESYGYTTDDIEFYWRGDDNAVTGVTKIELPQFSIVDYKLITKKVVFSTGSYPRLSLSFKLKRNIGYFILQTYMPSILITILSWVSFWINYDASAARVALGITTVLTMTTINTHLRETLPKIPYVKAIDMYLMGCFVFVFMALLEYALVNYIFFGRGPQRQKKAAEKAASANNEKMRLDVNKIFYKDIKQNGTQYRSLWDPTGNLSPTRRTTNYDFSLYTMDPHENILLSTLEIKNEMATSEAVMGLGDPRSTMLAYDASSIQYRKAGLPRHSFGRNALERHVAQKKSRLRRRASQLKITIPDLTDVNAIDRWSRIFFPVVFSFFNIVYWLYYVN
T2 sequence (P18507 40-475 partner): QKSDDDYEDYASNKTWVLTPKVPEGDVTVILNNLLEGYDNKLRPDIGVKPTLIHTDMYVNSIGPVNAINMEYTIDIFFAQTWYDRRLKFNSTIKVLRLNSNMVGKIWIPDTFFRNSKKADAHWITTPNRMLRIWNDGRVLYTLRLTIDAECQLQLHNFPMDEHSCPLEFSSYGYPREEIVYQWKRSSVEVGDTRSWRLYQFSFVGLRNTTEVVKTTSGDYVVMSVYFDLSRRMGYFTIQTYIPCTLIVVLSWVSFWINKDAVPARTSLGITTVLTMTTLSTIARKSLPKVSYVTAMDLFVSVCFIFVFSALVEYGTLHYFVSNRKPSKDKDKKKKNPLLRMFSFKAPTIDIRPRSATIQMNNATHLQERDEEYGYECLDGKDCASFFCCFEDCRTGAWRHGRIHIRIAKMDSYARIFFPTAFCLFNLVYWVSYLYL
T1 sequence (P48169 36-554): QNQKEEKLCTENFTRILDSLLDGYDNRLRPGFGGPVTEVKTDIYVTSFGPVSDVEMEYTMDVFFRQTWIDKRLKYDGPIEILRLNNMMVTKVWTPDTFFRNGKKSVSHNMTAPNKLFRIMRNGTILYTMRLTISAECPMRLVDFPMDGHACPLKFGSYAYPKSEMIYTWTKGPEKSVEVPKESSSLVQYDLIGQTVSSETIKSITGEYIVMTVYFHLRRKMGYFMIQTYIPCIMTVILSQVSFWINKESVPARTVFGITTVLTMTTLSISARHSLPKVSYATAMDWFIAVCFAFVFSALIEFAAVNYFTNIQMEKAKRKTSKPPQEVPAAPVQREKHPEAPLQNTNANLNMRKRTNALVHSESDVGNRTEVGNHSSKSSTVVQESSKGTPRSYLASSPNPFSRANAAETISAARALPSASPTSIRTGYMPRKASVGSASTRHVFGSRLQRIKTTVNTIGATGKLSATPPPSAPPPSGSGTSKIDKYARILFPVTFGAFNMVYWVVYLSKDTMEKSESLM
T1 sequence (P28472 26-473): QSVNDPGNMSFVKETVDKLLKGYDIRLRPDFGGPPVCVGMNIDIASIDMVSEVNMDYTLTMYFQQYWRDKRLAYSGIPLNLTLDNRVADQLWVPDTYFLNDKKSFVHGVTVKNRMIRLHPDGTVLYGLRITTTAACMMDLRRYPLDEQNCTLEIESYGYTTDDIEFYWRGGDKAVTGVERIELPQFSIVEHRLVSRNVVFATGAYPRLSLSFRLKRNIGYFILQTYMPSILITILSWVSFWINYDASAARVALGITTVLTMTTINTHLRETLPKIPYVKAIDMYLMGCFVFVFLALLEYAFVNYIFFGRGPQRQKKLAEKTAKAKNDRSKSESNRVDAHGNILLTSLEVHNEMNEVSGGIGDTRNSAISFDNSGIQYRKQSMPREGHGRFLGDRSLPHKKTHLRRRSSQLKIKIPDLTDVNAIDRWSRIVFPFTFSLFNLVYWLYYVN
T1 sequence (O14764 25-452 partner): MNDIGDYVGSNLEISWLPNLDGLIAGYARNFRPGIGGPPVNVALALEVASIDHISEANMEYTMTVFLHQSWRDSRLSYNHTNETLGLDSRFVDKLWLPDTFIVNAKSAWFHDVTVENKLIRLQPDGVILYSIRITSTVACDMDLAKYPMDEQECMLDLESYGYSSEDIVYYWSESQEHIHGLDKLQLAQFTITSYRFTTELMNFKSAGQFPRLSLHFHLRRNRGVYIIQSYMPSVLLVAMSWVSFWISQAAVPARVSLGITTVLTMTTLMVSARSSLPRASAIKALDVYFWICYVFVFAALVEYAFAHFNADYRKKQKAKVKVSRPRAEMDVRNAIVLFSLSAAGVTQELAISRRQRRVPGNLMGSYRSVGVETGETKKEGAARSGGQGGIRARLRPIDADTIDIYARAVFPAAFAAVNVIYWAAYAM

Compound: COC[C@]12CC[C@@](C)(O)C[C@@H]1CC[C@H]1[C@@H]3CC[C@H](C(=O)Cn4cc(Cl)cn4)[C@@]3(C)CC[C@@H]12 [Compound 18]
- Emax at 10 µM [1]: 1000 to 1500%
- Emax at 10 µM [2]: 1000 to 1500%

Compound: COC[C@]12CC[C@@](C)(O)C[C@@H]1CC[C@H]1[C@@H]3CC[C@H](C(=O)Cn4ccnc4F)[C@@]3(C)CC[C@@H]12 [Compound 21]
- Emax at 10 µM [1]: 50 to 500%
- IC50 [3]: 100 to 500 nM
- Emax at 10 µM [2]: 50 to 500%

Compound: CCOC[C@]12CC[C@@](C)(O)C[C@@H]1CC[C@H]1[C@@H]3CC[C@H](C(=O)Cn4nnnc4C)[C@@]3(C)CC[C@@H]12 [Compound 26]
- Emax at 10 µM [1]: 1000 to 1500%
- IC50 [3]: 50 to 100 nM
- Emax at 10 µM [2]: 500 to 1000%

Compound: COC[C@]12CC[C@@](C)(O)C[C@H]1CC[C@H]1[C@@H]3CC[C@H](C(=O)Cn4nnc(C)n4)[C@@]3(C)CC[C@@H]12 [Compound 29]
- Emax at 10 µM [1]: 500 to 1000%
- IC50 [3]: 100 to 500 nM
- Emax at 10 µM [2]: 50 to 500%

Compound: COC[C@]12CC[C@@](C)(O)C[C@H]1CC[C@H]1[C@@H]3CC[C@H](C(=O)Cn4ccnn4)[C@@]3(C)CC[C@@H]12 [Compound 32]
- Emax at 10 µM [1]: 1000 to 1500%
- IC50 [3]: 50 to 100 nM
- Emax at 10 µM [2]: 50 to 500%

Compound: COC[C@]12CC[C@@](C)(O)C[C@H]1CC[C@H]1[C@@H]3CC[C@H](C(=O)Cn4cc(S(C)(=O)=O)cn4)[C@@]3(C)CC[C@@H]12 [Compound 33]
- Emax at 10 µM [1]: 50 to 500%
- IC50 [3]: 10 to 50 nM
- Emax at 10 µM [2]: 50 to 500%

Compound: COC[C@]12CC[C@@](C)(O)C[C@@H]1CC[C@H]1[C@@H]3CC[C@H](C(=O)Cn4ncc5ccncc54)[C@@]3(C)CC[C@@H]12 [Compound 45]
- Emax at 10 µM [1]: 1000 to 1500%
- IC50 [3]: 50 to 100 nM
- Emax at 10 µM [2]: 500 to 1000%

Compound: COC[C@]12CC[C@@](C)(O)C[C@@H]1CC[C@H]1[C@@H]3CC[C@H](C(=O)Cn4nnc5cccc(F)c54)[C@@]3(C)CC[C@@H]12 [Compound 47]
- Emax at 10 µM [1]: 1000 to 1500%
- IC50 [3]: 10 to 50 nM
- Emax at 10 µM [2]: 500 to 1000%

Compound: COC[C@]12CC[C@@](C)(O)C[C@@H]1CC[C@H]1[C@@H]3CC[C@H](C(=O)Cn4nnc5c(F)cccc54)[C@@]3(C)CC[C@@H]12 [Compound 48]
- Emax at 10 µM [1]: 50 to 500%
- IC50 [3]: 10 to 50 nM
- Emax at 10 µM [2]: 500 to 1000%

Compound: COC[C@]12CC[C@@](C)(O)C[C@@H]1CC[C@H]1[C@@H]3CC[C@H](C(=O)Cn4nnc5ccc(OC)cc54)[C@@]3(C)CC[C@@H]12 [Compound 51]
- Emax at 10 µM [1]: 1000 to 1500%
- IC50 [3]: 10 to 50 nM
- Emax at 10 µM [2]: 500 to 1000%

Compound: COC[C@]12CC[C@@](C)(O)C[C@@H]1CC[C@H]1[C@@H]3CC[C@H](C(=O)Cn4nc5cccc(OC)c5n4)[C@@]3(C)CC[C@@H]12 [Compound 57]
- Emax at 10 µM [1]: 500 to 1000%
- IC50 [3]: 50 to 100 nM
- Emax at 10 µM [2]: 50 to 500%

Compound: COC[C@]12CC[C@@](C)(O)C[C@@H]1CC[C@H]1[C@@H]3CC[C@H](C(=O)Cn4nnc5c(OC)cccc54)[C@@]3(C)CC[C@@H]12 [Compound 58]
- Emax at 10 µM [1]: 500 to 1000%
- IC50 [3]: < 10 nM
- Emax at 10 µM [2]: 500 to 1000%
